Results reported in patent US4463009A, “Dialkyl 1-(2-pyridinylthio)-1,2-hydrazinedicarboxylate, N-oxides and their use as animal growth stimulants” (priority 1983, dated 1984).
In brackets after ≈: the same amount, converted by molar mass.

Tests used:
[1] = tested on: Ileal inoculum (filtrate) of Yorkshire barrow; experiment: in vitro incubation with inoculum from cannulated swine (ileal); type: cell-based; conditions: 5 hours at 37°
Experimental: A Yorkshire barrow is surgically prepared either with an ileal cannula, which is placed 15 cm. from the ileo-ceco-colic junction, or a cecal cannula, which placed midway between the apex and origin of the cecum. The animal is fed 4 times daily to restrict intake to 4.5% of body weight in a 30 kg animal or 2.5% of body weight in a 100 kg animal. The swine grower ration is:
Sampling of the material, via the cannula, begins 150-180 minutes following the first morning feeding and continues any time from 30-120 minutes thereafter, depending on the quantity of material needed. The sample is maintained in crushed ice, no cooler than 5°, and is gassed continuously with carbon dioxide. The collected material is filtered. The filtrate is the inoculum used for incubations of the test and control samples. […] Four blank control tubes, along with the test compound tubes, are incubated 5 hours at 37° with agitation. Four more killed tubes are included which are not incubated.
The tubes are each treated with 0.60 ml of a 25% solution of metaphosphoric acid, then, stored at -4° until analysis. Samples are thawed and centrifuged for 25 minutes at 20,000 r.p.m. The supernatent liquid is decanted, sampled for gas chromatography and automatic analysis. The results are fed into a computer for finishing to give figures in which the blank control value is 100%. Virginiamycin is used as a positive control.
*VFA refers to the total of volatile fatty acids, namely acetate,
propionate, isobutyrate, butyrate, isovalerate and valerate. LYS is
lysine, GLU is glucose and LAC is Llactic acid.

Staph. aureus = experiment: chemotherapeutic activity, m.i.c. against Staph. aureus; type: cell-based; conditions: Staphylococcus aureus
C. albicans = experiment: chemotherapeutic activity, m.i.c. against C. albicans; type: cell-based; conditions: Candida albicans
broiler chicks = experiment: Chick Growth Study; type: in vivo, chicken; conditions: 8 reps (8/rep)
Experimental: One day old broiler chicks, selected for weight, health and sex, are housed in an environmentally controlled room with temperature at 80° F. and humidity at 40%. Chicks are fed ad libitum. Water is offered ad libitum. A rye or corn basal ration is fed during the acclimation period (days 1 and 2), then, mixed with the compound under test or control conditions on days 3-17. Either 8 pens (64 chicks) or 16 pens (128 chicks) are used for each test or control group.
B. Representative results using diethyl 1-(2-pyridinylthio)-1,2-hydrazinedicarboxylate, N-oxide: […]

Strep. faecalis = experiment: chemotherapeutic activity, m.i.c. against Strep. faecalis; type: cell-based; conditions: Enterococcus faecalis
E. coli = experiment: chemotherapeutic activity, m.i.c. against E. coli; type: cell-based; conditions: Escherichia coli
[2] = (3) positive control, 166.67 ppm

CCOC(=O)NN(Sc1cccc[n+]1[O-])C(=O)OCC [diethyl 1-(2-pyridinylthio)-1,2-hydrazinedicarboxylate, N-oxide]
GLU (glucose) ([1]; (1), 1.67 ppm): 166 % of control values | LAC (L-lactic acid) ([1]; (1), 1.67 ppm): 91 % of control values | LYS (lysine) ([1]; (1), 1.67 ppm): 109 % of control values | VFA (total volatile fatty acids) ([1]; (1), 1.67 ppm): 91 % of control values | GLU (glucose) ([1]; (1), 16.67 ppm): 237 % of control values | LAC (L-lactic acid) ([1]; (1), 16.67 ppm): 81 % of control values | LYS (lysine) ([1]; (1), 16.67 ppm): 152 % of control values | VFA (total volatile fatty acids) ([1]; (1), 16.67 ppm): 72 % of control values | GLU (glucose) ([1]; (1), 166.7 ppm): 379 % of control values | LAC (L-lactic acid) ([1]; (1), 166.7 ppm): 54 % of control values | LYS (lysine) ([1]; (1), 166.7 ppm): 194 % of control values | VFA (total volatile fatty acids) ([1]; (1), 166.7 ppm): 47 % of control values | GLU (glucose) ([1]; (2), 166.67 ppm): 845 % of control values | LAC (L-lactic acid) ([1]; (2), 166.67 ppm): 139 % of control values | LYS (lysine) ([1]; (2), 166.67 ppm): 110 % of control values | VFA (total volatile fatty acids) ([1]; (2), 166.67 ppm): 55 % of control values | MIC (Staph. aureus): 2 µg/mL (≈ 6.64 µM) | MIC (C. albicans): 63 µg/mL (≈ 209 µM) | Weight, 17 day (broiler chicks; trial (1)): 102.0 % of Control | Dead (broiler chicks; trial (1), 20 ppm in feed): 1 | Feed/Gain, days 3-10 (broiler chicks; trial (1), 20 ppm in feed): 102.2 % of Control | Feed/Gain, days 3-17 (broiler chicks; trial (1), 20 ppm in feed): 101.7 % of Control | Feed/Gain, days 10-17 (broiler chicks; trial (1), 20 ppm in feed): 101.7 % of Control | Weight, 10 day (broiler chicks; trial (1), 20 ppm in feed): 96.4 % of Control | Weight, 17 day (broiler chicks; trial (1), 20 ppm in feed): 103.2 % of Control | Dead (broiler chicks; trial (1), 40 ppm in feed): 4 | Feed/Gain, days 3-10 (broiler chicks; trial (1), 40 ppm in feed): 103.3 % of Control | Feed/Gain, days 3-17 (broiler chicks; trial (1), 40 ppm in feed): 98.4 % of Control | Feed/Gain, days 10-17 (broiler chicks; trial (1), 40 ppm in feed): 95.0 % of Control | Weight, 10 day (broiler chicks; trial (1), 40 ppm in feed): 90.9 % of Control | Dead (broiler chicks; trial (2), 20 ppm in feed): 4 | Feed/Gain, days 3-10 (broiler chicks; trial (2), 20 ppm in feed): 96.8 % of Control | Feed/Gain, days 3-17 (broiler chicks; trial (2), 20 ppm in feed): 96.4 % of Control | Feed/Gain, days 10-17 (broiler chicks; trial (2), 20 ppm in feed): 96.5 % of Control | Weight, 10 day (broiler chicks; trial (2), 20 ppm in feed): 103.5 % of Control | Weight, 17 day (broiler chicks; trial (2), 20 ppm in feed): 103.4 % of Control | Dead (broiler chicks; trial (3), 50 ppm in feed): 0 | Feed/Gain, days 3-10 (broiler chicks; trial (3), 50 ppm in feed): 97.1 % of Control | Feed/Gain, days 3-17 (broiler chicks; trial (3), 50 ppm in feed): 93.6 % of Control | Feed/Gain, days 10-17 (broiler chicks; trial (3), 50 ppm in feed): 85.2 % of Control | Weight, 10 day (broiler chicks; trial (3), 50 ppm in feed): 93.2 % of Control | Weight, 17 day (broiler chicks; trial (3), 50 ppm in feed): 102.8 % of Control | MIC (Strep. faecalis): 3 µg/mL (≈ 9.96 µM) | MIC (E. coli): 63 µg/mL (≈ 209 µM)

virginiamycin [reference compound]
GLU (glucose) ([1]; (3) positive control, 1.67 ppm): 393 % of control values | LAC (L-lactic acid) ([1]; (3) positive control, 1.67 ppm): 0 % of control values | LYS (lysine) ([1]; (3) positive control, 1.67 ppm): 99 % of control values | VFA (total volatile fatty acids) ([1]; (3) positive control, 1.67 ppm): 255 % of control values | GLU (glucose) ([1]; (3) positive control, 16.7 ppm): 464 % of control values | LAC (L-lactic acid) ([1]; (3) positive control, 16.7 ppm): 12 % of control values | LYS (lysine) ([1]; (3) positive control, 16.7 ppm): 141 % of control values | VFA (total volatile fatty acids) ([1]; (3) positive control, 16.7 ppm): 114 % of control values | GLU (glucose) [1, 2]: 496 % of control values | LAC (L-lactic acid) [1, 2]: 14 % of control values | LYS (lysine) [1, 2]: 144 % of control values | VFA (total volatile fatty acids) [1, 2]: 86 % of control values
